Data on 1 compound can be found in article PMC9990178 (Cell Chemical Biology, 2023).

Assay [1] relates to pulmonary fibrosis induced by N protein of the Omicron variant. The assay is classed as in vivo. Conditions: mice, AAV encoding Omicron N protein.
For assay [2], the system named is Smad3 phosphorylation, α-SMA, COL1A1. The assay is classed as cell-based, mouse. The settings on record: Alpha, Beta, Gamma, Delta, Omicron N protein; 20 μM, 36 h.

Each structure is given as a SMILES string.

Take `O=c1c(O)c(N2CCN(Cc3ccc(Br)cc3F)CC2)oc2ccccc12` [RMY-205, 2-(4-(4-bromo-2-fluorobenzyl)piperazin-1-yl)-3-hydroxy-4H-chromen-4-one]: in assay [1], the “pro-fibrotic effects of N protein of the Omicron variant” value is given as “effectively suppressed”. Further, in assay [2], the “Smad3 phosphorylation induced by N protein variants” value is listed as “abolished”; the “α-SMA and COL1A1 expression induced by N protein variants” value is on record as “suppression”.
